Experimental data as given in patent US20220296600A1, “USE OF A COMPOSITION COMPRISING 3,6,7-TRIMETHYLLUMAZINE FOR PREVENTING, AMELIORATING OR TREATING MMP-9 ASSOCIATED CONDITIONS AND INFLAMMATION” (COMVITA LIMITED, priority 2019, published 2022).

Legend:
[1] = tested on: differentiated THP-1 cells; assay: Cell viability (WST-1); assay type: cell-based; conditions: 40 μg/mL
Protocol: To measure cytotoxicity of 3,6,7-trimethyllumazine at different doses, 2-(4-lodophenyl)-3-(4-nitrophenyl)-5-(2,4-disulfophenyl)-2H-tetrazolium, monosodium salt (WST-1) (Roche, 11644807001, Lot #45255800) was used. WST-1 is a cell proliferation reagent for measurement of cellular proliferation, viability, and cytotoxicity using a colorimetric assay (Gosert (2011); Peskin (2000)).
After incubation, a portion of the culture media was taken and stored for MMP-9 secretion testing using ELISA. The remaining media in the plates was then removed and 100 μl of WST-1 in RPMI-1640 media (1:10 dilution) was added to each cell well and incubated at 37° C. for a further 4 hours. The plates were then read using a plate reader at wavelength of 450 nm. Cytotoxicity was calculated as follows: • [WST-1 score for each sample/WST-1 score for the control]×100 • A WST-1 score below 80% will be considered cytotoxic.

recombinant MMP-9 enzyme [2] = target: T1, recombinant MMP-9 enzyme (Homo sapiens, UniProt P14780); assay: MMP-9 inhibitor screening assay (colorimetric); assay type: biochemical; conditions: read-out: percentage inhibition of MMP-9
T1 construct: purchased Abcam (Melbourne, Australia)
T1 sequence (P14780 94-707): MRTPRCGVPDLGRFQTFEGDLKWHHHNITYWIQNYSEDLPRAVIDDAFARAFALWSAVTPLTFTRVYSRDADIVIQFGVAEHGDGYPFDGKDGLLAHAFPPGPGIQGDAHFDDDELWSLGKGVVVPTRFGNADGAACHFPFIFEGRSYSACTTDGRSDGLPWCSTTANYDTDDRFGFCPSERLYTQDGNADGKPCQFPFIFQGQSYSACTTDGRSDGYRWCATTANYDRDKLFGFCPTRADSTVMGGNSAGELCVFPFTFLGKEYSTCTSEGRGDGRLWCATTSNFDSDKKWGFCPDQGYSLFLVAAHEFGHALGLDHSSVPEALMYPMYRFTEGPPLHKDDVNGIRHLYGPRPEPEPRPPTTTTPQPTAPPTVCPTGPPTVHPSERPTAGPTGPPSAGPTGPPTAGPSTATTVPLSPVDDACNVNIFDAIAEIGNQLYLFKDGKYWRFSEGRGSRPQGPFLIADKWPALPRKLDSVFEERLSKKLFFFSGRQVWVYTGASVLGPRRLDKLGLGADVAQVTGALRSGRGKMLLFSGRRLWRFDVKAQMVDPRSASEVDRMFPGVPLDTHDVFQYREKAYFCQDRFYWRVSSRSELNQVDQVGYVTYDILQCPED
Description: The MMP-9 inhibitor screening assay (colorimetric) kits were purchased from Abcam (Melbourne, Australia). The kit contains the recombinant MMP-9 enzyme, MMP inhibitor NNGH, MMP chromogenic substrate, the colorimetric assay buffer and 96-well clear microplate.
The colorimetric kit uses a thiopeptide as a chromogenic substrate (Ac-PLG- [2-mercapto-4-methyl-pentanoyl]-LG-[…]), which can be hydrolysed by MMPs to produce a sulfhydryl group. This intermediate product further reacts with DTNB [5,5′-dithiobis(2-nitrobenzoic acid), Ellman's reagent] to form 2-nitro-5-thiobenzoic acid, which can be detected by absorbance at 412 nm. The change in absorbance was measured using the SpectraMax iD3 multi-mode microplate reader (Molecular Devices, San Jose, USA). The assays are performed on a convenient 96-wells microplate with a final reaction volume of 100 μL. Prior to the assay, all testing samples and inhibitor controls were incubated with MMP-9 for 60 min at 37° C. […] The absorbance was measured at 1 min intervals during the first 20 min, then 10 min intervals till the end of assay.
Recombinant MMP-9 and the chromogenic substrate were used as the positive control to represent 100% enzyme activity. […] A range of 3,6,7-trimethyllumazine concentrations were diluted with the colorimetric assay buffer to measure the absorbance of the reaction product.

recombinant MMP-9 enzyme [3] = target: T1, recombinant MMP-9 enzyme; assay: MMP-9 inhibitor screening assay (fluorometric); assay type: biochemical
Protocol: The MMP-9 inhibitor screening assay (fluorometric) kits were purchased from Abcam (Melbourne, Australia). The fluorometric kit contains the recombinant MMP-9 enzyme, MMP inhibitor NNGH (N-isobutyl-N-[4-methoxyphenylsulfonyl]glycyl hydroxamic acid), MMP fluorogenic substrate solubilised in DMSO, the fluorometric assay buffer and 96-well clear microplate.
Inhibitory activity on MMP-9 was assessed using the commercial MMP-9 inhibitor screening assay kit. MMP-9 activity was expressed as a change in fluorescence intensity measured using SpectraMax iD3 multi-mode microplate reader (Molecular Devices, San Jose, USA).
The assay employs a FRET-tagged (fluorescence resonance energy transfer) substrate, which can be hydrolysed by MMP-9 at a specific site (Abcam, 2018). The cleavage of the FRET substrate releases the quenched fluorescent Mca (7- methoxycoumarin-4-yl)-acetyl group (Abcam, 2018). The kit employs a quenched fluorogenic substrate Mca-Pro-Leu-Gly-Leu-Dpa-Ala-Arg-NH2, where the Mca fluorescence is quenched by Dpa until cleavage by MMPs. The amount of fluorescent product yielded by MMP-9 can be detected fluorometrically and it is proportional to the enzyme activity. Fluorescence were measured at ex320 nm-em395 nm to minimise fluorescence interference from 3,6,7-trimethyllumazine at ex330 nm-em470 nm. Assays were performed on a 96-well clear microplate included in the kit with a final reaction volume of 100 µL. Before adding the substrate, MMP-9 enzymes were incubated with testing samples and inhibitor control for 60 min at 37° C. The fluorescent substrate was added into each well prior to the assay to initiate the reaction. The assay was allowed to run for 20 min and the temperature in the reaction chamber was set to 37° C.
Testing samples were prepared comprising 3,6,7-trimethyllumazine prepared as outlined above.
A positive control was included with only MMP-9 and the fluorescent substrate, used as a reference to calculate the percentage inhibition. A broad spectrum MMP inhibitor NNGH was included as the negative control. […]

[4] = tested on: MMP-9 secretion in differentiated THP-1 cells; assay: LPS induced MMP-9 secretion in differentiated THP-1 cells (ELISA); assay type: cell-based, human; conditions: LPS 1 μg/mL; for reduction of MMP-9 secretion: 24 hours
Protocol: THP-1 cells (ATCC, ATCTIB202) were grown in RPMI-1640 (Gibco, 11875093)+0.05 mM 2-mercaptoethanol+10% fetal calf serum (FCS)+1% pen-strep. For experiments, the cells were cultured in RPMI-1640 medium with 10% fetal bovine serum (FBS) only.
THP-1 monocyte cells were seeded at a density of 2.5×10^5 cells/ml in 96-well plates and differentiated into macrophages using 10 ng/ml of phorbol 12-myristate 13-acetate (PMA) (Bergin et al) (Sigma, P1585-1MG, Lot #SLBX889, 100% purity) for 72 hours. PMA media was then removed from the differentiated THP-1 cells, the cells were then washed once in RPMI-1640 media and then left to rest for ˜5 hours.
The differentiated THP-1 cells were stimulated with LPS from E. coli […] (Sigma, L6529; Lot#037K4068). LPS tested at a concentration of 1 μg/ml (Kong et al). The cells were incubated with LPS alone or in combination with 3,6,7-trimethyllumazine (received from University of Auckland and diluted in RPMI-1640 at a stock concentration of 1 mg/ml, stock was stored in fridge for 2 days before use) at a concentration range between 2.5-40 μg/ml. 6 μM Azithromycin (Sigma, Cat #75199-25MG, Lot#069M4826V) was used as a positive control (Vandooren et al). The cells were then incubated with the different treatments for 24 hours (Kong et al). After 24 hours, the cell culture media was collected and measured for MMP-9 concentration using MMP-9 ELISA (R&D systems, RDSDY91105 lot #P239459 and DY008 Lot #P239900). The cells were then incubated with WST-1 for cell viability.
This human MMP-9 assay measures the 92 kDa Pro-MMP-9 and the 82 kDa active MMP-9. […] This assay also recognizes human MMP-9 when complexed to Lipocalin-2/NGAL, isolated from human source material.
In order to better capture the variability, each treatment was done at least in triplicate in each plate (2 plates). Media from the triplicate wells were pooled and analysed in duplicates for the MMP-9 ELISA. A student's test was performed in excel between media with LPS and the different treatments.

[5] = Simulated gastrointestinal digestion (SGF then SIF), 3,6,7-trimethyllumazine retention by HPLC; assay type: in vitro ADME; conditions: from four Manuka honey samples; 2 h gastric plus 4 h intestinal digestion
Protocol: The simulated gastrointestinal digestion was carried out using a static model. The simulated gastric fluid (SGF) and the simulated intestinal fluid (SIF) were prepared in accordance with a global consensus protocol (Minekus et al 2014). The SGF has a pH 3 to mimic the fed-state of the stomach. When mixed with Manuka honey (or a honey solution), the final mixture contains 2000 U/mL of pepsin. The SIF has pH 7 to mimic the fed-state of the small intestine, containing 2 mg/mL of pancreatin (8 x USP, or based on a protease activity of 200 U/mL) and 20 mM of porcine bile extract before use.
In the simulated gastric digestion, 2 g of Manuka honey was incubated in 2 mL of SGF at 37° C. under 95 rpm shaking for a period of 2 h (triplicates). At selected time points (0, 30, 60 and 120 min), a predetermined volume (0.1 mL) of the mixture was withdrawn for 3,6,7-trimethyllumazine analysis. […]
The gastric and intestinal digesta for 3,6,7-trimethyllumazine analysis was treated to remove insoluble fractions (e.g. pancreatin) before HPLC analysis. […] The amount of 3,6,7-trimethyllumazine at different time points was analysed using a reverse-phase HPLC system, which has been previously used to analyse 3,6,7-trimethyllumazine and leptosperin as reported in the literature (Bin Lin et al 2017). […] The signal of 3,6,7-trimethyllumazine was detected at 320 nm.

active MMP-9 = assay: Gelatin gel zymography, active MMP-9 band; assay type: biochemical; conditions: active MMP-9 band (~37 kDa); supplemented developing buffer
Protocol: (§1) Novex™ 10% Zymogram Plus (Gelatin) Protein Gels (15 wells) were purchased from Thermo Fisher Scientific Inc. (Auckland, New Zealand). All chemicals required for the zymogram analysis were also purchased from Thermo Fisher, these include Novex™ Sharp Pre-stained Protein Standard, Novex Tris-Glycine SDS sample buffer, Novex Tris-Glycine SDS running buffer, Novex Zymogram renaturing buffer and Novex Zymogram developing buffer. […] Gelatin gel zymography was performed as an independent technique to confirm the inhibition of MMP-9 from 3,6,7-trimethyllumazine. This technique uses a non-reducing SDS-PAGE (sodium dodecyl sulfate polyacrylamide gel electrophoresis) gel embedded with gelatin. Proteins are migrated and separated during electrophoresis. The SDS is removed after electrophoresis and the gel is then incubated with essential cofactors required for enzymatic activity. The embedded gelatin can be digested by MMP-9, resulting in clear bands on a dark blue background after staining with Coomassie blue dyes. The gelatinase activity is represented by band densitometry, which can be assessed with image analysis software. […]
(§2) After incubation, the gelatin gel was rinsed with water for three times (5 min each) under gentle agitation. […] MMP-9 activities were analysed using densitometry on ImageJ Version 1.52a.

[6] = tested on: inactive MMP-9 (pro-MMP-9); assay: Gelatin gel zymography, inactive (pro-)MMP-9 band; assay type: biochemical; conditions: inactive MMP-9 band; supplemented developing buffer
Protocol: as §1, §2

For `Cc1nc2[nH]c(=O)n(C)c(=O)c2nc1C` [3,6,7-trimethyllumazine], the “WST-1 score (cell viability; below 80% considered cytotoxic)” value [1] was 79.8%, the inhibition at 40 µg/mL (recombinant MMP-9 enzyme [2]; 40 μg/ml) was 10% and the inhibition at 80 µg/mL (recombinant MMP-9 enzyme [2]; 80 μg/ml) was 10%. The inhibition at 2.5 µg/mL (recombinant MMP-9 enzyme [3]; 2.5 μg/ml, not significant (p>0.05), read-out: percentage inhibition of MMP-9 activity) was 12%, the IC50 (recombinant MMP-9 enzyme [3]; fluorometric, second-order polynomial fit of % inhibition vs concentration) was 55.8 µM and the “reduction of MMP-9 secretion” value ([4]; 30 μg/mL) was 23%. The “reduction of MMP-9 secretion” value ([4]; 40 μg/mL) was 38%, the “initial 3,6,7-trimethyllumazine amount recovered in the digesta” value [5] was about 100% and the “percentage inhibition of gelatinase activity (densitometry)” value (active MMP-9) was 31%. For the same molecule, the “percentage inhibition of gelatinase activity (densitometry)” value [6] was 17%.
For `COc1ccc(S(=O)(=O)N(CC(=O)NO)CC(C)C)cc1` [NNGH, N-isobutyl-N-[4-methoxyphenylsulfonyl]glycyl hydroxamic acid, reference compound], the “change in fluorescence intensity (MMP-9 activity)” value (recombinant MMP-9 enzyme [3]; NNGH inhibitor control) was “almost no change in fluorescence”.
For `CC[C@H]1OC(=O)[C@H](C)[C@@H](O[C@H]2C[C@@](C)(OC)[C@@H](O)[C@H](C)O2)[C@H](C)[C@@H](O[C@@H]2O[C@H](C)C[C@H](N(C)C)[C@H]2O)[C@](C)(O)C[C@@H](C)CN(C)[C@H](C)[C@@H](O)[C@]1(C)O` [Azithromycin, reference compound], the “effect on MMP-9 secretion” value ([4]; 6 μM positive control, absolute values, P=0.00) was “inhibits mmp-9 secretion”.
